Experimental findings from patent US20250011332A1, “PYRAZOLO FUSED RING COMPOUND AND USE THEREOF” (SOTER BIOPHARMA PTE. LTD., priority 2021, published 2025) are described below.

Holding throughout (format): biochemical
Experiment [1] addresses JAK1(h) (Homo sapiens (Human), UniProt P23458). Put plainly: JAK1 kinase activity test in vitro ([γ-33P]-ATP, Eurofins). As for the experimental part:
(§1) Recombinant human JAK1, JAK2, JAK3 and Tyk2 […], main instruments and reagents are all provided by the British company Eurofins
(§2) JAK2, JAK3 and TYK2 dilution: 20 mM 3-(N-morpholine)propanesulfonic acid (MOPS), 1 mM EDTA, 0.01% Brij-35.5% glycerol, 0.1% β-mercaptoethanol, 1 mg/mL BSA; JAK1 dilution: 20 mM TRIS, 0.2 mM EDTA, 0.1% β-mercaptoethanol, 0.01% Brij-35.5% glycerol. All compounds were prepared as 100% DMSO solutions and brought to 50 times the final assay concentration. The test compound was subjected to 3-fold serial concentration dilution with a final concentration from 10 μM to 0.001 μM of a total of 9 concentrations. The content of DMSO in the detection reaction was 2%. A working stock solution of this compound was added to the assay well as the first component of the reaction, and then the remaining components were added according to the protocol detailed in the following determination.
JAK1(h) was incubated with 20 mM Tris/HCl pH 7.5, 0.2 mM EDTA, 500 μM MGEEPLYWSFPAKKK (SEQ ID NO: 1), 10 mM magnesium acetate and [γ-^33P]-ATP (activity and concentration were determined as required). The reaction was started by adding the Mg/ATP mixture, and after incubation at room temperature for 40 min, the reaction was terminated by adding 0.5% phosphoric acid. Then 10 μL of the reaction product was spotted on a P30 filter pad which was washed three times with 0.425% phosphoric acid and once with methanol within 4 min, dried, and subjected to scintillation counting.
(§3) IC50 results were analyzed by XLFIT5 (205 formula) of IDBS Company.

The target in experiment [2] is JAK2(h) (Homo sapiens (Human), UniProt O60674). Briefly: JAK2 kinase activity test in vitro ([γ-33P]-ATP, Eurofins). As for the experimental part:
as §1, §2
JAK2(h) was incubated with 8 mM MOPS pH 7.0, 0.2 mM EDTA, 100 μM […] (SEQ ID NO: 2), 10 mM magnesium acetate, and [γ-^33P]-ATP (activity and concentration were determined as required). The reaction was started by adding the Mg/ATP mixture, and after incubation at room temperature for 40 min, the reaction was terminated by adding 0.5% phosphoric acid. Then 10 μL of the reaction product was spotted on a P30 filter pad which was washed three times with 0.425% phosphoric acid and once with methanol within 4 min, dried, and subjected to scintillation counting.
as §3

Experiment [3] addresses JAK3(h) (Homo sapiens (Human), UniProt P52333). Briefly: JAK3 kinase activity test in vitro ([γ-33P]-ATP, Eurofins). Here is the method: as §1, §2
JAK3(h) was incubated with 8 mM MOPS pH 7.0, 0.2 mM EDTA, 500 μM GGEEEEYFELVKKKK (SEQ ID NO: 3), 10 mM magnesium acetate, and [γ-^33P]-ATP (activity and concentration were determined as required). The reaction was started by adding the Mg/ATP mixture, and after incubation at room temperature for 40 min, the reaction was terminated by adding 0.5% phosphoric acid. Then 10 μL of the reaction product was spotted on a P30 filter pad which was washed three times with 0.425% phosphoric acid and once with methanol within 4 min, dried, and subjected to scintillation counting.
as §3

The target of experiment [4] is TYK2(h) (Homo sapiens (Human), UniProt P29597). Put plainly: TYK2 kinase activity test in vitro ([γ-33P]-ATP, Eurofins). As for the experimental part: as §1, §2
Sequence of TYK2(h) (P29597 whole entry): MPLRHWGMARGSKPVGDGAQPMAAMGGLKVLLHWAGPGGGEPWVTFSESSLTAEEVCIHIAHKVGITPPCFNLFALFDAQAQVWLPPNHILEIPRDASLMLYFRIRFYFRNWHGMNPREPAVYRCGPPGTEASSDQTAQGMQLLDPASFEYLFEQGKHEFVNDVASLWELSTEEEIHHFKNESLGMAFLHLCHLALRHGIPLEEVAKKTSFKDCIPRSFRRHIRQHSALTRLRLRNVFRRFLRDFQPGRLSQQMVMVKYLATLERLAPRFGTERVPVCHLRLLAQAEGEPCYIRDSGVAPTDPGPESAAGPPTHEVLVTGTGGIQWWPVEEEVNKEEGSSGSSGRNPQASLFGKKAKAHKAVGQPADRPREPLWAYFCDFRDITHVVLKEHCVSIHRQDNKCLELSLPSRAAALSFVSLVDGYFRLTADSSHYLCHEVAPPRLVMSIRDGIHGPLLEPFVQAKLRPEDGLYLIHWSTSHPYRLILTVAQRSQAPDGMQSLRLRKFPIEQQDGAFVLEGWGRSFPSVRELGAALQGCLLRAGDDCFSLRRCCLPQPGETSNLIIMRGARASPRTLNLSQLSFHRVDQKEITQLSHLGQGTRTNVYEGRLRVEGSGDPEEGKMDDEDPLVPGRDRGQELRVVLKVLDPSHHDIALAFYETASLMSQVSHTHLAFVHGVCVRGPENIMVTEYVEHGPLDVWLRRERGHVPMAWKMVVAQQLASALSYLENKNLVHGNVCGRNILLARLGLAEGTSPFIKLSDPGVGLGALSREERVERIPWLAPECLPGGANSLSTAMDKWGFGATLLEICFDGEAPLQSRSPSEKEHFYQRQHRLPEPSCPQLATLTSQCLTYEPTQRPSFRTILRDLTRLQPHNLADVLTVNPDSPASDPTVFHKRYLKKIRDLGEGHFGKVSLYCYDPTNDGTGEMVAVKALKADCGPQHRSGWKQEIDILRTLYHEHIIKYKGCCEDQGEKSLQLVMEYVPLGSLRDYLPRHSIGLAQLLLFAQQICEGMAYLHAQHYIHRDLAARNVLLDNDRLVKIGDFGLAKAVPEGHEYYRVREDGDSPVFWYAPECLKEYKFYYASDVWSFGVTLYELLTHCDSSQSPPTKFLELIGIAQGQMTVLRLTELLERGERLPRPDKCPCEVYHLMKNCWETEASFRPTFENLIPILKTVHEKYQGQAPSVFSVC
TYK2(h) was incubated with 8 mM MOPS pH 7.0, 0.2 mM EDTA, 250 μM GGMEDIYFEFMGGKKK (SEQ ID NO: 4), 10 mM magnesium acetate, and [γ-^33P]-ATP (activity and concentration were determined as required). The reaction was started by adding the Mg/ATP mixture, and after incubation at room temperature for 40 min, the reaction was terminated by adding 0.5% phosphoric acid. Then 10 μL of the reaction product was spotted on a P30 filter pad which was washed three times with 0.425% phosphoric acid and once with methanol within 4 min, dried, and subjected to scintillation counting.
as §3

Sequence of JAK3(h) (P52333 whole entry): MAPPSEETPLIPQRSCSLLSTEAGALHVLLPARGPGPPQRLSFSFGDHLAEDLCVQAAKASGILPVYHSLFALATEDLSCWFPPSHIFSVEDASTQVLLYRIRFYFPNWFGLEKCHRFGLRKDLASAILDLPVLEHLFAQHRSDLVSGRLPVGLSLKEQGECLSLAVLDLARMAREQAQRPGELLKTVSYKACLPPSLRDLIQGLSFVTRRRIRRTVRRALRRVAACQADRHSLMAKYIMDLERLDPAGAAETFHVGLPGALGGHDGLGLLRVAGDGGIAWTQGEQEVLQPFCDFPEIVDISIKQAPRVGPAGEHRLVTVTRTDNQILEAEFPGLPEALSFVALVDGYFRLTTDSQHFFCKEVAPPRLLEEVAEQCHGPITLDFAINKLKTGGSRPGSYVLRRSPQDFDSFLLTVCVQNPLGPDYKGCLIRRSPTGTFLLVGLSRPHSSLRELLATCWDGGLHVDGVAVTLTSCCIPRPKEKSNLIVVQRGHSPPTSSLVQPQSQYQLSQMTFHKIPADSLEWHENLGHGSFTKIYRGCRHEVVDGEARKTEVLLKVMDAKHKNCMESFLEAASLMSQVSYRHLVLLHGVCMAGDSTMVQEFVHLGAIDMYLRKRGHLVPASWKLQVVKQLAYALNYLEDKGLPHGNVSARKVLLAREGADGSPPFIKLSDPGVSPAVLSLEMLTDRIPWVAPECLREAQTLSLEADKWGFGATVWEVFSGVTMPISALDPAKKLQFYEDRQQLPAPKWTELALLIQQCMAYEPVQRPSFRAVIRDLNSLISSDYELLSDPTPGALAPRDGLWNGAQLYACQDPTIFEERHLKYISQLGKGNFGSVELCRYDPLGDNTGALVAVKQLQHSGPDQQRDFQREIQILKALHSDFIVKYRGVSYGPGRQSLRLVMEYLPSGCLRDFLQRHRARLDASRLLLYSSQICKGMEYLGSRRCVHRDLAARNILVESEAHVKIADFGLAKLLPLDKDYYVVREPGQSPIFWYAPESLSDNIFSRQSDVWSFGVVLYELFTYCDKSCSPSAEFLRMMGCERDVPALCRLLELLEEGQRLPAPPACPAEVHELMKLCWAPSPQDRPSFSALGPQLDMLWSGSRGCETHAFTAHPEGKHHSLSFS
Sequence of JAK2(h) (O60674 whole entry): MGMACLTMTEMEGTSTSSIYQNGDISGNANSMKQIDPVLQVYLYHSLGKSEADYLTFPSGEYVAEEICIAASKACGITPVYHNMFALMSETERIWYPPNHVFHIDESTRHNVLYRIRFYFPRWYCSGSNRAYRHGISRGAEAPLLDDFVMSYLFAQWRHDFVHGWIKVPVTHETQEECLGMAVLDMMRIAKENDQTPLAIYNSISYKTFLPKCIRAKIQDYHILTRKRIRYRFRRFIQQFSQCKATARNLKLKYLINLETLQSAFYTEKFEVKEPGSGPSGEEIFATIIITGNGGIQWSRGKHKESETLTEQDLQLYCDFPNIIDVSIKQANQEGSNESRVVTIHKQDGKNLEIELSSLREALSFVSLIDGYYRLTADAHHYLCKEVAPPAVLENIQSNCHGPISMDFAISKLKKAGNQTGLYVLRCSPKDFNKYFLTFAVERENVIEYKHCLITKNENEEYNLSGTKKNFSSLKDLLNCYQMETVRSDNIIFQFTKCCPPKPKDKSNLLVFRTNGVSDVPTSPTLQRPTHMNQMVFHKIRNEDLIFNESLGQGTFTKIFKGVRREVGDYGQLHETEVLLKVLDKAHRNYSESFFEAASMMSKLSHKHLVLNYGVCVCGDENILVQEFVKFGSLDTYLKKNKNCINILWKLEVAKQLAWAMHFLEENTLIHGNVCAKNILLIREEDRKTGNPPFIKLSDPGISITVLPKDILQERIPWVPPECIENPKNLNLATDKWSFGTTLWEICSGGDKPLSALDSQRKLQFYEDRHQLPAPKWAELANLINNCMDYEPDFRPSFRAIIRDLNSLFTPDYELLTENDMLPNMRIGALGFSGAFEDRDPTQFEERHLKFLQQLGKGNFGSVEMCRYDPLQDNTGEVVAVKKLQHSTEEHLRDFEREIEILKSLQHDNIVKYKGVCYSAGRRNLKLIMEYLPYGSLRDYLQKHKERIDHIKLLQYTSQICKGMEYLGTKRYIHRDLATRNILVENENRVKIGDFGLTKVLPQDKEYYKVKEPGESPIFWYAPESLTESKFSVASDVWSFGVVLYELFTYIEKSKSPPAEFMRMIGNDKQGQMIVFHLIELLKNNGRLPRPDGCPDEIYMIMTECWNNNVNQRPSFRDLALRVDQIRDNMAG
Sequence of JAK1(h) (P23458 whole entry): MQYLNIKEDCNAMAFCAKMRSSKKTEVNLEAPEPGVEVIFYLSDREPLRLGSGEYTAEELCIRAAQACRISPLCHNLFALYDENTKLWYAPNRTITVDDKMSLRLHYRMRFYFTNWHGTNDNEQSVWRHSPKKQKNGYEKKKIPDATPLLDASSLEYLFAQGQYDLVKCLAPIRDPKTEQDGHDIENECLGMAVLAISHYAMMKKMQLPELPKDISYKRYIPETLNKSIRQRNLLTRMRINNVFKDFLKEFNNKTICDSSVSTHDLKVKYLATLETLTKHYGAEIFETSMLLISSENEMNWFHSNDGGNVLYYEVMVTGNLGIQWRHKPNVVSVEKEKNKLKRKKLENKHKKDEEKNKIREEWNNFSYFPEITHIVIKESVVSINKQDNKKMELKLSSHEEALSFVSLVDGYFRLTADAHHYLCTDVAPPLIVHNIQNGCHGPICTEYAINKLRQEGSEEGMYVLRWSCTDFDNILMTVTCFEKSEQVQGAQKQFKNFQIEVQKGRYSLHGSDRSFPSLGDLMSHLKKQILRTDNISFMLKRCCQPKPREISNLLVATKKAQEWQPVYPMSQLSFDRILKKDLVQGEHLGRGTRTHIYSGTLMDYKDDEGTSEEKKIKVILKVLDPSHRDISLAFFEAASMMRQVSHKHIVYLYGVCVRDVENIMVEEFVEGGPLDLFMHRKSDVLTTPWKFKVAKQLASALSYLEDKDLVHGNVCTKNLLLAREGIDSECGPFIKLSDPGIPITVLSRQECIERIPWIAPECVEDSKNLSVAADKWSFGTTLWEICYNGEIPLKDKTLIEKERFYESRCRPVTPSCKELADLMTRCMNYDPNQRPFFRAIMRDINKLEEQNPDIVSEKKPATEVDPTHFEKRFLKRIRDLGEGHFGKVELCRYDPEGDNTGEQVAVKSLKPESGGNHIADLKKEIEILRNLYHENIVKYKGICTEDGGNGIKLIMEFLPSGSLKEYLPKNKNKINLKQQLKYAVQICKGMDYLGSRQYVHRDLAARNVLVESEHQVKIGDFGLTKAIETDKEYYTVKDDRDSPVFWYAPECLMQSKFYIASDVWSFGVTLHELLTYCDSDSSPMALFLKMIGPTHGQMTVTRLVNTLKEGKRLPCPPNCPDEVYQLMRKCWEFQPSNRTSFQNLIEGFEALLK

With `Cn1ccc(-c2cn3nccc3c(-c3cnn(C(CC#N)C45CC(C#N)(C4)C5)c3)n2)n1` (stereo not drawn) [Compound 3], the half-inhibitory concentration (IC50) (commonly the concentration needed to halve the response being measured) was 1.17 µM in experiment [1], 0.387 µM in experiment [2], 10 µM in experiment [3] and 0.177 µM in experiment [4].
For `Cn1ccc(-c2cn3nccc3c(-c3cnn([C@]4(CC#N)CC5(C[C@H](C#N)C5)C4)c3)n2)n1` (stereo partly drawn) [Compound 4], in that order: 0.606 µM, 0.082 µM, no less than 10 µM and 0.02 µM.
The like results for `Cn1ccc(-c2cn3nccc3c(-c3cnn([C@]4(CC#N)CC5(C[C@@H](C#N)C5)C4)c3)n2)n1` (stereo partly drawn) [Compound 5] were, in that order, 0.078 µM, 0.04 µM, 2.26 µM and 0.009 µM.
Take `Cn1ccc(-c2cn3nccc3c(-c3cnn(C4(CC#N)CC5(CN(CC#N)C5)C4)c3)n2)n1` [Compound 6]: the 50% inhibitory concentration (IC50) amounted to 3.13 µM in experiment [1] and 0.177 µM in experiment [4].
The like results for `Cn1ccc(-c2cn3nccc3c(-c3cnn(C4(CC#N)CC5(CN(C#N)C5)C4)c3)n2)n1` [Compound 7] were, in that order, 2.91 µM and 0.228 µM.
Consider `Cn1ccc(-c2cn3nccc3c(-c3cnn(C4(CC#N)CC5C(C#N)C5C4)c3)n2)n1` (stereo not drawn) [Compound 8], for which the half-maximal inhibitory concentration (IC50) in experiment [1] worked out at 0.0137 µM; in experiment [2] it was 0.00113 µM; in experiment [3], 0.0228 µM; in experiment [4] it was 0.00643 µM.
For `Cn1ccc(-c2cn3nccc3c(-c3cnn(C4(CC#N)CC5(CCN(C#N)CC5)C4)c3)n2)n1` [Compound 9], in that order: 0.128 µM, 0.00516 µM, 0.209 µM and 0.00281 µM.
For `Cn1nc(-c2cn3nccc3c(-c3cnn([C@]4(CC#N)CC5(C[C@H](C#N)C5)C4)c3)n2)cc1N` (stereo partly drawn) [Compound 14], in that order: 0.051 µM, 0.006 µM, 0.296 µM and 0.0008 µM.
The like results for `Cn1cc(-c2cc(-c3cnn([C@]4(CC#N)CC5(C[C@H](C#N)C5)C4)c3)c3ccnn3c2)cn1` (stereo partly drawn) [Compound 16] were, in that order, 0.042 µM, 0.006 µM, 0.067 µM and 0.002 µM.
With `N#CC[C@]1(n2cc(-c3nc(-c4cc(N)[nH]n4)cn4nccc34)cn2)CC2(C[C@@H](C#N)C2)C1` (stereo partly drawn) [Compound 21], the 50% inhibitory concentration (IC50) worked out at 0.005 µM in experiment [1], 0.003 µM in experiment [2], 0.099 µM in experiment [3] and 0.0007 µM in experiment [4].
